Data published in ChEMBL document CHEMBL6096670, “Design, synthesis and biological evaluation of novel β-carbolines as antitumor agents via targeting autophagy in colorectal cancer” (Eur J Med Chem, 2025).

What was measured:
[1] = system: HepG2; assay: Antiproliferative activity against human HepG2 cells assessed as inhibition of cell growth incubated for 48 hrs by MTT assay; format: functional, cell-based; conditions: HepG2, 48 h
[2] = system: CWR22R; assay: Antiproliferative activity against human 22Rv1 cells assessed as inhibition of cell growth incubated for 48 hrs by MTT assay; format: functional, cell-based; conditions: 22Rv1, 48 h
[3] = system: HT-29; assay: Antiproliferative activity against human HT-29 cells assessed as inhibition of cell growth incubated for 48 hrs by MTT assay; format: functional, cell-based; conditions: HT-29, 48 h
[4] = system: A-375; assay: Antiproliferative activity against human A-375 cells assessed as inhibition of cell growth incubated for 48 hrs by MTT assay; format: functional, cell-based; conditions: A-375, 48 h
[5] = system: MCF7; assay: Antiproliferative activity against human MCF7 cells assessed as inhibition of cell growth incubated for 48 hrs by MTT assay; format: functional, cell-based; conditions: MCF7, 48 h
[6] = system: SK-OV-3; assay: Antiproliferative activity against human SK-OV-3 cells assessed as inhibition of cell growth incubated for 48 hrs by MTT assay; format: functional, cell-based; conditions: SK-OV-3, 48 h
[7] = system: 786-0; assay: Antiproliferative activity against human 786-0 cells assessed as inhibition of cell growth incubated for 48 hrs by MTT assay; format: functional, cell-based; conditions: 786-0, 48 h
[8] = system: BGC-823; assay: Antiproliferative activity against human BGC-823 cells assessed as inhibition of cell growth incubated for 48 hrs by MTT assay; format: functional, cell-based; conditions: BGC-823, 48 h
[9] = system: HCT-116; assay: Induction of apoptosis in human HCT-116 assessed as viable cells at 100 uM pretreated with Z-VAD-FMK for 30 mins followed by compound addition and measured after 24 hrs by Annexin V-FITC/PI double staining based flow cytometry (reference value: 90.8%); format: functional; conditions: read-out: Activity
[10] = system: HCT-116; assay: Induction of apoptosis in human HCT-116 assessed as necrotic cells at 100 uM pretreated with Z-VAD-FMK for 30 mins followed by compound addition and measured after 24 hrs by Annexin V-FITC/PI double staining based flow cytometry (reference value: 0.84 %); format: functional
[11] = system: HCT-116; assay: Induction of apoptosis in human HCT-116 assessed as early apoptotic cells at 100 uM pretreated with Z-VAD-FMK for 30 mins followed by compound addition and measured after 24 hrs by Annexin V-FITC/PI double staining based flow cytometry (reference value: […]); format: functional
[12] = system: HCT-116; assay: Induction of apoptosis in human HCT-116 assessed as necrotic cells at 100 uM incubated for 24 hrs Annexin V FITC/PI double staining based flow cytometry (reference value: 0.94 %); format: functional
[13] = system: HCT-116; assay: Induction of apoptosis in human HCT-116 assessed as early apoptotic cells at 100 uM incubated for 24 hrs Annexin V FITC/PI double staining based flow cytometry (reference value: 1.07 %); format: functional
[14] = system: HCT-116; assay: Induction of apoptosis in human HCT-116 assessed as late apoptotic cells at 100 uM pretreated with Z-VAD-FMK for 30 mins followed by compound addition and measured after 24 hrs by Annexin V-FITC/PI double staining based flow cytometry (reference value: 7.43 %); format: functional
[15] = system: HCT-116; assay: Induction of apoptosis in human HCT-116 assessed as late apoptotic cells at 100 uM incubated for 24 hrs Annexin V FITC/PI double staining based flow cytometry (reference value: 8.02 %); format: functional
[16] = system: HCT-116; assay: Induction of apoptosis in human HCT-116 assessed as viable cells at 100 uM incubated for 24 hrs Annexin V FITC/PI double staining based flow cytometry (Rvb =90.0%); format: functional; conditions: read-out: Activity

Question: For `CCN(CC)CCCNCc1cc2c3ccccc3n(C)c2c(CNCCCN(CC)CC)n1`, which IC50 [1] is on record?
Answer: > 20 µM

Question: And the IC50 [2]?
Answer: 12.6 µM

Question: What about the IC50 [3] of the same compound?
Answer: 8.62 µM

Question: And the IC50 [4]?
Answer: > 20 µM

Question: And the IC50 [5]?
Answer: > 20 µM

Question: What about the IC50 [6] of the same compound?
Answer: > 20 µM

Question: And the IC50 [7]?
Answer: 14.2 µM

Question: What about the IC50 [8] of the same compound?
Answer: 16.8 µM

Question: Which results are given for `CCN(CC)CCCNCc1cc2c([nH]c3ccccc32)c(CNCCCN(CC)CC)n1`?
Answer: IC50 [1]: > 20 µM; IC50 [2]: 16.1 µM; IC50 [3]: 12.7 µM; IC50 [4]: > 20 µM; IC50 [5]: > 20 µM; IC50 [6]: > 20 µM; IC50 [7]: 14.9 µM; IC50 [8]: > 20 µM

Question: For `CCN(CC)CCCNCc1cc2c3ccccc3n(Cc3ccccc3)c2c(CNCCCN(CC)CC)n1`, which IC50 [1] is on record?
Answer: 14.3 µM

Question: And the IC50 [2]?
Answer: 11.2 µM

Question: What about the IC50 [3] of the same compound?
Answer: 5.54 µM

Question: And the IC50 [4]?
Answer: 7.83 µM

Question: What about the IC50 [5] of the same compound?
Answer: 15.2 µM

Question: And the IC50 [6]?
Answer: 9.62 µM

Question: And the IC50 [7]?
Answer: 10.6 µM

Question: And the IC50 [8]?
Answer: 7.24 µM

Question: Which results are given for `CCN(CC)CCCNCc1cc2c3ccccc3n(Cc3ccc(F)cc3)c2c(CNCCCN(CC)CC)n1`?
Answer: IC50 [1]: 5.68 µM; IC50 [2]: 9.22 µM; IC50 [3]: 5.81 µM; IC50 [4]: 4.82 µM; IC50 [5]: 6.92 µM; IC50 [6]: 7.85 µM; IC50 [7]: 5.42 µM; IC50 [8]: 8.81 µM

Question: What does the source list for `CCCCn1c2ccccc2c2cc(CNCCCN(CC)CC)nc(CNCCCN(CC)CC)c21`?
Answer: IC50 [1]: 15.6 µM; IC50 [2]: 8.24 µM; IC50 [3]: 8.03 µM; IC50 [4]: 15.8 µM; IC50 [5]: 10.5 µM; IC50 [6]: 15.8 µM; IC50 [7]: 9.32 µM; IC50 [8]: 11.2 µM

Question: With `O=c1[nH]cc(F)c(=O)[nH]1` [FLUOROURACIL] as the compound, how does the viability at 100 µM [9] read?
Answer: 75.5%

Question: And the Activity [10]?
Answer: 4.13%

Question: What about the Activity [11] of the same compound?
Answer: 3.01%

Question: What about the Activity [12] of the same compound?
Answer: 1.62%

Question: What about the Activity [13] of the same compound?
Answer: 39.6%

Question: And the Activity [14]?
Answer: 17.3%

Question: What about the Activity [15] of the same compound?
Answer: 15.2%

Question: And the viability at 100 µM [16]?
Answer: 43.6%
